Measured values published in US20030091533A1, “Regulation of mononuclear phagocyte stimulation” (priority 2001, published 2003).

Columns and labels:
LPS-stimulated PBM [1] = assay: Intracellular oxidative burst, DCFH oxidation assay, PBM; format: cell-based, human
Protocol: Intracellular oxidative capacity was assessed essentially as described by Bass et al., J. Immunol., 130:1910-1917 (1983) (incorporated herein by reference) as described infra.
Cells (0.2×10^6) were preincubated for 24 hour with IL-9 or IL-4 (20 ng/ml) in the presence of IFN-γ (200 U/ml) before stimulation for 20 hour with LPS (1 μg/ml). The intracellular oxidative capacity was measured through the DCFH oxidation assay as describe herein. FIG. 3 depicts the effect of IFN-γ on the inhibition mediated by IL-9 and IL-4 on the oxidative burst in LPS-stimulated PBM (A) and AM (B).
Table 1. Specific blockade of the IL-9 inhibitory effect on oxidative burst in LPS-15 stimulated PBM and AM by anti-hIL-9R mAb. Cells (0.2×10^6) were preincubated with neutralizing mAb against hIL-9R (AH9R7, 10 μg/ml), or with control mIgG2b (10 μg/ml), 1 hour before incubation with IL-9 (20 ng/ml) for 24 hour without removing mAb, and stimulated by LPS (1 μg/ml) for 20 h. Intracellular oxidative capacity was evaluated by the DCFH oxidation assay. Data are means±SEM obtained from three experiments, triplicate conditions being performed in each experiment. *P<0.001 compared with cells preincubated with IL-9 (with or without control mIgG2b).
Cells (0.2×10^6) were preincubated with neutralizing mAb, either against TGF-β1 (30 μg/ml) or against IL-10Rβ (30 μg/ml) or with control mIgG1 (30 μg/ml), 2 hour before incubation with IL-9 (20 ng/ml) for 24 hour without removing the mAb, and stimulated with LPS (1 μg/ml) for 20 h. Intracellular oxidative capacity was evaluated by the DCFH oxidation assay.
Intracellular oxidative capacity was assessed as described by Bass et al., (Bass et al., J. Immunol. 130:1910-1917 (1983)). Briefly, the PBM and AM samples were distributed in 96-well plates with flat bottoms (Falcon) to provide 0.2×10^6cells/well. The cells were preincubated for 24 hour at 37° C., 5% CO2 with cytokines (200 u/ml for IFN-y, 20 ng/ml for IL-9 and 20 ng/ml; for IL-4) in cRPMI before being stimulated for 20 hours with LPS (1 μg/ml) without removing the cytokines. At the end of incubation with cytokines and/or LPS, cells were loaded for 15 min with 15 μM DCFH-DA in cRPMI which, after passive penetration into cells, is hydrolyzed into nonfluorescent polar DCFH and trapped inside the cells. DCFH is then oxidized into highly fluorescent DCF according to the intracellular amount of hydrogen peroxide (H2O2) produced by the respiratory burst. After three washings with phosphate-buffered saline (PBS, pH 7.4), cells were lysed in 0.1% v/v Triton X100 (Sigma) in PBS, and fluorescence was quantified in a computerized microplate spectrofluorimeter (Packard Instruments, Downers Grove, Ill., USA) at 485 nm excitation/530 nm emission wavelengths. DCF concentrations were deduced from a standard curve of known concentrations of fluorescent DCF (ranging from 0.08 to 10 μM in lysis buffer) Results were corrected for total protein concentration determined in cell lysates by the bicinchoninic acid-based method (Pierce, Rockford, Ill., USA), and were expressed as nmoles DCF/mg cell protein.

ERK½ = ERK½ MAP kinase phosphorylation immunoblot in PBM; format: cell-based, human; details: pretreatment before LPS 1 μg/ml; IL-9 20 ng/ml 24 hour; PD98059 1 hour
Protocol: PBM, isolated as described infra, were treated with 100 !M PD98059 (or with the same volume of DMSO as control) 1 hour before preincubation for 24 hour with medium or IL-9 (20 ng/ml). For the phosphoERK immunoblot assay (A), PBM were then stimulated by LPS (1 μg/ml) for the indicated periods of time (5 min to 20 hours) as compared to unstimulated cells (med), and processed for the detection of phosphorylated and total ERK½ as described in infra. For the oxidative burst (B), PBM were stimulated by LPS (1 μg/ml) for 20 hour and their oxidative capacity was evaluated through DCFH oxidation The results are presented in FIG. 7.
PBM were preincubated for 24 hour with medium alone (med) or IL-9, IL-4 or TGF-β1 (20 ng/ml), and stimulated by LPS (1 μg/ml) for the indicated periods of time (30 to 240 min). […]
PBM (1×10^6) were preincubated for 24 hour with medium alone or with cytokines (IL-9, IL-4 or TGF-β1 at 20 ng/ml) and stimulated from 5 min to 20 hour by 1 μg/ml LPS. […] Cell extracts (10 μg, as determined by the bicinchoninic acid-based assay) were subjected to SDS-12%PAGE, and electrotransferred onto a nitrocellulose membrane (Amersham) immunoblotted to detect and compare phosphorylated (threonine^202/tyrosine^204 residues) and total ERK½, using specific antibodies and enhanced chemiluminescence (New England Biolabs). […]

LPS-stimulated PBM [2] = assay: Intracellular oxidative burst, DCFH oxidation assay, PBM; format: cell-based, human; details: PMA as stimulus, preliminary experiments
PMA-stimulated PBM = assay: Extracellular O2- release, SOD-inhibitable reduction of ferricytochrome c; format: cell-based, human; details: PMA as stimulus, preliminary experiments
Protocol: Extracellular release of O2-derived radicals was evaluated by the SOD-inhibitable reduction of ferricytochrome c, as previously described (Pick, Methods in Enzymology, 132:407-421 (1986)) as described infra.
Extracellular release of O2-derived radicals was evaluated by the SOD-inhibitable reduction of ferricytochrome c, as previously described (Pick, Methods in Enzymology, 132:407-421 (1986)). Briefly, after incubation with IL-9 and IL-4 (20 ng/ml) for 1 hour, 4 hour 24 hour and 96 hour, cells were washed three times in Hank's balanced salt solution without phenol red (HBSS) to remove the phenol red-containing medium and incubated at 37° C. with HBSS containing 160 μM ferricytochrome c (plus 300 IU/ml SOD as control for each condition), and concomittantly with 100 ng/ml PMA when indicated. Optical density (OD) at 550 nm was then recorded in a plate spectrometer (Titertek Multiscan Plus MKII, Labsystems, Finland) after 60 min. The released amount of superoxide anion (O2^−) was deduced from the absorbance values at 550 nm (after subtraction of control values with SOD) using the cytochrome c extinction coefficient of 21×10^3 M^−1 cm^−1 (See Massey, Biochim Biophys Acta, 34: 255(1959)). Results were expressed as nmoles O2^− per 10^6 cells per hour (FIG. 1).

surface of PBM and AM = assay: IL-9 binding assay with hIL-9-mIgG3 chimeric molecule by FACS; parameters: species or system human; details: revealed by GAM3-FITC, compared with control
Protocol: To assess the IL-9 binding by PBM and AM, cells (0.2×10^6) were incubated with hIL-9-nIlgG3 chimeric protein and binding was assayed with GAM3-FITC. FIG. 4 is representative of five and three experiments for respectively IL-9R expression and IL-9 binding.
Binding of IL-9 to the surface of PBM and AM was assessed by incubating these cells (0.2×10^6) at 4° C. for 1 hour with hIL-9-mIgG3 chimeric molecule (10% COS cell supernatant). […] Cells incubated with mIgG3 before GAM3-FITC served as the negative control. FACS analysis of the cell-associated fluorescence was then performed as for the assessment of IL-9R expression.
Binding of IL-9 to the surface of PBM and AM was assessed by incubating these cells (0.2×10^6) at 4° C. for 1 hour with hIL-9-mIgG3 chimeric molecule (10%, v/v, COS cell supernatant). […] Cells incubated with mIgG3 before GAM3-FITC or only with GAM3-FITC served as negative controls. FACS analysis of the cell-associated fluorescence was then performed as for the assessment of IL-9R expression.

Compound: COc1cccc(-c2cc(=O)c3ccccc3o2)c1N [PD98059, reference compound]
- effect on LPS-stimulated ROI production (oxidative burst) in monocytes (LPS-stimulated PBM [1]; PD98059 1 hour before preincubation, LPS 20 hour, DCFH oxidation): completely suppressed
- LPS-induced ERK½ phosphorylation in PBM (ERK½): prevented

Compound: CCCCCCCCCCCCCC(=O)O[C@@H]1[C@@H](C)[C@@]2(O)[C@@H](C=C(CO)C[C@]3(O)C(=O)C(C)=C[C@@H]23)[C@@H]2C(C)(C)[C@]12OC(C)=O [PMA, phorbol myristate acetate, reference compound]
- DCFH oxidation by PBM (LPS-stimulated PBM [2]): only a minor effect
- cytochrome c reduction by PBM (PMA-stimulated PBM): strongly stimulated

Compound: IL-9-mIgG3: human IL-9 fused to hinge, CH2 and CH3 domains of murine IgG3 heavy chain, COS cell supernatant
- binding of IL-9 on the surface of AM (surface of PBM and AM): significant binding
- binding of IL-9 on the surface of PBM (surface of PBM and AM): significant binding

Compound: TGF-β1: monocyte/macrophage deactivating factor, 20 ng/ml
- Oxidative burst (nmoles DCF/mg protein) (LPS-stimulated PBM [1]; Table 3, PBM, mAb 30 μg/ml 2 hour before IL-9 20 ng/ml 24 hour, LPS 1 μg/ml 20 h, means±SD, Medium 10.3 ± 0.2): 10.2 ± 0.5 nmoles DCF/mg protein
- LPS-stimulated oxidative burst in PBM (LPS-stimulated PBM [1]; preincubation 24 hour with cytokine 20 ng/ml, then LPS 1 μg/ml 20 hour, without IFN-γ): 10.2±0.5 nmoles DCF/mg protein
